Results: US20170065663A1, “SUBSTANCE AND METHOD FOR TREATING INFLUENZA” (priority 2014, published 2017)
Read-outs that look alike come from different tables or passages of the source.

Tests used:
ECE-1 = target: T1, ECE-1 (Homo sapiens, UniProt P42892); conditions: cited from earlier work; for peptide present that is degraded: within 100 minutes of incubation
T1 sequence (P42892 1-770): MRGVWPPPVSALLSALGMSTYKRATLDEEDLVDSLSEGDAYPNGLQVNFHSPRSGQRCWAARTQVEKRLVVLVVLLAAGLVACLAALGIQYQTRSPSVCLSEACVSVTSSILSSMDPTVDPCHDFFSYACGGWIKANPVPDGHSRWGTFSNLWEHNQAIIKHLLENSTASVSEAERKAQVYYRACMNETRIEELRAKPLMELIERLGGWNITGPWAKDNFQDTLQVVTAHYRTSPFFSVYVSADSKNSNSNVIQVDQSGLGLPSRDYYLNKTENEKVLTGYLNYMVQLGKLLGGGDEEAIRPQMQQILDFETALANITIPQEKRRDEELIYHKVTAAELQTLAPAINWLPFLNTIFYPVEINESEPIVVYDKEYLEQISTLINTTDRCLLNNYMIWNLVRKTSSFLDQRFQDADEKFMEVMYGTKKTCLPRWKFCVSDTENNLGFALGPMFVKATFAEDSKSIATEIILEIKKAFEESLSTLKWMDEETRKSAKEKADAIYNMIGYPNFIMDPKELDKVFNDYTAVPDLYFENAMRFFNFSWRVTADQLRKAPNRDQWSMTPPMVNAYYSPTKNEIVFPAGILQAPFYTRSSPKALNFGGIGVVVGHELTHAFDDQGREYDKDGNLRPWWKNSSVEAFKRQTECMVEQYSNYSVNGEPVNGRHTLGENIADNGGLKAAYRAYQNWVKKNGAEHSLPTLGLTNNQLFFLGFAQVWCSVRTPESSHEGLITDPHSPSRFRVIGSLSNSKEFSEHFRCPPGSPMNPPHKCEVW

[1] = Example I: degradation in IMDM media with 2.5% fetal bovine serum
Influenza/A/Wuhan/359/95 [2] = system: Influenza/A/Wuhan/359/95; set-up: species or system cotton rats (Sigmodon Hispidus); conditions: rat, in vivo
Influenza/A/Wuhan/359/95 [3] = system: Influenza/A/Wuhan/359/95; set-up: species or system cotton rats (Sigmodon Hispidus); conditions: rat, in vivo; remark: listed apart in the source
[4] = system: influenza virus subtypes H1N1, H3N2, H5N1 and H7N9; set-up: species or system mice, cotton rats and ferrets; conditions: in vivo
[5] = system: influenza virus subtypes H1N1, H3N2, H5N1 and H7N9; set-up: species or system mice, cotton rats and ferrets; conditions: in vivo; remark: listed apart in the source
[6] = Example II: degradation of further Substance P analogs in IMDM media with 2.5% fetal bovine serum; conditions: 72 hours, present tense

SMILES: CC(C)C[C@H](NC(=O)CN(C)C(=O)[C@H](Cc1ccccc1)NC(=O)[C@H](Cc1ccccc1)NC(=O)[C@H](CCC(N)=O)NC(=O)[C@H](CCC(N)=O)NC(=O)[C@@H]1CCCN1C(=O)[C@H](CCCCN)NC(=O)[C@@H]1CCCN1C(=O)[C@@H](N)CCCNC(=N)N)C(=O)N[C@@H](CCS(C)(=O)=O)C(N)=O
- additional degradation after long incubation (ECE-1; 195 nM ECE-1, 1200 minutes post-incubation): no additional degradation occurs
- time for 50% of the peptide present to become degraded (ECE-1; 195 nM ECE-1): ~300 min
- peptide present that is degraded (ECE-1; 195 nM ECE-1): about 20%
- remaining at 72 h [1]: 59%

SMILES: CCOC(=O)C1=C[C@@H](OC(CC)CC)[C@H](NC(C)=O)[C@@H](N)C1 [Tamiflu®, oseltamivir]
- body weight loss (Influenza/A/Wuhan/359/95 [2]): recover from weight-loss quicker than vehicle-treated controls
- pulmonary inflammation (alveolitis and interstitial inflammation) (Influenza/A/Wuhan/359/95 [2]): did not appear to affect pulmonary inflammation
- body weight change following infection (Influenza/A/Wuhan/359/95 [3]): greater loss in body weight than mock-treated/infected animals
- flu-related symptoms compared with placebo [4]: fewer flu-related symptoms
- flu-related symptoms compared with placebo [5]: fewer flu-related symptoms
- symptom reduction compared with subjects treated with an enumerated Substance P analog [5]: do not exhibit the symptom reduction produced in the subjects treated with one of the enumerated Substance P analogs

SMILES: CSCC[C@H](NC(=O)[C@H](CC(C)C)NC(=O)CNC(=O)[C@H](Cc1ccccc1)NC(=O)[C@H](Cc1ccccc1)NC(=O)[C@H](CCC(N)=O)NC(=O)[C@H](CCC(N)=O)NC(=O)[C@@H]1CCCN1C(=O)[C@H](CCCCN)NC(=O)[C@@H]1CCCN1C(=O)[C@@H](N)CCCN=C(N)N)C(N)=O [Substance P]
- peptide present that is degraded (ECE-1; 195 nM ECE-1): ~100%
- remaining at 72 h [1]: 24%
- initial concentration recovered [6]: 24%
